Source: patent US20260325654A1, “METHODS AND COMPOSITIONS FOR TARGETED PROTEIN DEGRADATION” (Ranok Therapeutics (Hangzhou) Co. Ltd., priority 2023, published 2026)

Tests used:
AGS = experiment: CellTiter-Glo Reagent cancer cell line proliferation assay, AGS; type: cell-based, human; conditions: Homo sapiens, 24 h, KRAS(G12D) heterozygous
From the text: (§1) The following cancer cell lines were employed: • AsPC-1 human pancreatic adenocarcinoma, homozygous KRAS(G12D), (ATCC, #CRL-1682); A-427 human lung carcinoma, heterozygous KRAS(G12D), (ATCC, #HTB-53); AGS human gastric adenocarcinoma, heterozygous KRAS(G12D), (ATCC, #CRL-1739); GP2D human colon adenocarcinoma, heterozygous KRAS(G12D), (Sigma Aldrich, 95090714); SW1990 human pancreatic adenocarcinoma, homozygous KRAS(G12D), (ATCC, #CRL2172); LU65A human lung giant cell carcinoma, heterozygous KRAS(G12C), (JCRB Cell Bank, #JCRB0054); NCIH727 human lung carcinoid, heterozygous KRAS(G12V), (ATCC, #CRL-5815); MKN1 human gastric adenosquamous carcinoma KRAS (wt), (JCRB Cell Bank, #JCRB0252). Cell lines were cultured according to ATCC, JCRB and Sigma Aldrich recommendations.
(§2) Cells were plated in 96-well tissue culture plates at 4,000 cells/well and incubated at 37° C./5% CO2 for 24 hr in 100 μl of media. 3-fold serial dilutions of each test compound were prepared ranging from 20 μM to 1.02 nM. Cells were then treated with test compounds at various concentrations with a final concentration of 0.5% DMSO/well, and then incubated at 37° C./5% CO2 for 24 hr. 100 μl of CellTiter-Glo® Reagent (Promega Corporation, Madison, WI) was added to each well and processed according manufacturer's protocol. Results were analyzed and IC50-values were calculated in GraphPad 7 software.

NCIH727 = experiment: CellTiter-Glo Reagent cancer cell line proliferation assay, NCIH727; type: cell-based, human; conditions: Homo sapiens, NCI-H727, 24 h, NCIH727, KRAS(G12V) heterozygous
From the text: as §1, §2

MKN1 = experiment: CellTiter-Glo Reagent cancer cell line proliferation assay, MKN1; type: cell-based; conditions: Homo sapiens, MKN-1; MKN1, KRAS (wt), 24 hr
From the text: as §1, §2

LU65A = experiment: CellTiter-Glo Reagent cancer cell line proliferation assay, LU65A; type: cell-based, human; conditions: Homo sapiens, 24 h, KRAS(G12C) heterozygous
From the text: as §1, §2

GP2D = experiment: CellTiter-Glo Reagent cancer cell line proliferation assay, GP2D; type: cell-based; conditions: Homo sapiens, KRAS(G12D) heterozygous, 24 hr
From the text: as §1, §2

KRAS(G12C) = molecular target: T1, KRAS(G12C) (Homo sapiens, UniProt P01116, G12C); experiment: KRAS Western Blot Protein Degradation Assay, LU65A; type: cell-based; conditions: 24 hr; for DC50: read-out: WB data LU65A DC50; for Dmax: read-out: WB data LU65A DMax
T1 construct: LU65A that expresses KRAS(G12C); host or cells: LU65A
From the text: as §1
(§3) Cell lines SW1990 and GP2D that express KRAS(G12D), LU65A that expresses KRAS(G12C), and NCIH727 that expresses KRAS(G12V) were seeded in 6- or 12-well tissue culture plates, and after 1 hr, test compounds were added at various concentrations and incubated at 37° C./5% CO2 for 24 hr. Cells were then washed with cold PBS, aspirated and cold RIPA buffer containing a protease/phosphatase inhibitor cocktail was added to lyse cells. After centrifugation, the total protein concentrations of cell lysates were determined using the BCA protein assay. Samples were normalized for equivalent protein concentrations, 5× SDS-PAGE loading buffer added and denatured at 100° C. for 10 min. 20 μl of each sample/well was loaded on a SDS-PAGE gel and electrophoresed for 20 min at 80 V, then 120 V for 1.5 hr. Gels were then electroblotted to nitrocellulose membranes using a wet-transfer method at 250 mA for 2.5 hr. Membranes were incubated with blocking buffer for 1 hr and washed 3 times with TBST for 5 min. Membranes were then incubated with anti-KRAS (Sigma-Aldrich, #SAB1404011) and anti-β-Actin monoclonal antibodies (Cell Signaling Technology, #3700) diluted in blocking buffer at 4° C. overnight per the manufacturer's recommendations. After washing 3 times, blots were incubated with appropriately labeled secondary antibodies for 1 hr at room temperature and washed again. Fluorescence imaging and quantitation was performed using a LI-COR Odyssey. Results was analyzed using GraphPad Prism 7 software. Compound concentrations that induced KRAS degradation (DC50 and DCmax) were calculated using GraphPad Prism 7 software.

KRAS(G12D) = KRAS(G12D) (Homo sapiens, UniProt P01116, G12D); experiment: cell-based; type: cell-based; design: Cell lines SW1990 and GP2D that express KRAS(G12D); host or cells: SW1990; conditions: SW1990, read-out: WB data SW1990 DMax
Experimental: Cell lines were cultured according to ATCC, JCRB and Sigma Aldrich recommendations.
as §3, with “Cells” for “Cell lines SW1990 and GP2D that express KRAS(G12D), LU65A that expresses KRAS(G12C), and NCIH727 that expresses KRAS(G12V) were seeded in 6- or 12-well tissue culture plates, and after 1 hr, test compounds were added at various concentrations and incubated at 37° C./5% CO2 for 24 hr. Cells”

Chain of KRAS(G12D) (P01116 1-188 isoform P01116-2 G12D): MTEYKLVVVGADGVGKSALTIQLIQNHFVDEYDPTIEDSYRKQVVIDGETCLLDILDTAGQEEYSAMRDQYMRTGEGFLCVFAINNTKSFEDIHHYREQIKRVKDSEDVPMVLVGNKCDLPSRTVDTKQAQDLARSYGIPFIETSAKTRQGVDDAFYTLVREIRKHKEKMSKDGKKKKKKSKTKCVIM
T1 sequence (P01116 1-185 isoform P01116-2 G12C limits assumed): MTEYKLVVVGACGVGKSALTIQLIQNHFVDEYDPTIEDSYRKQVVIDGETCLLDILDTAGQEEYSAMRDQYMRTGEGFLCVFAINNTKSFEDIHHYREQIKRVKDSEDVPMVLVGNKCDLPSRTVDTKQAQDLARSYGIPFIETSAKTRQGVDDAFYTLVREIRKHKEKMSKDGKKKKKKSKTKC

Row | Compound | IC50 (AGS) | IC50 (NCIH727) | IC50 (MKN1) | IC50 (LU65A) | IC50 (GP2D) | DC50 (KRAS(G12C)) | Dmax (KRAS(G12C)) | Dmax (KRAS(G12D))
1 | C#Cc1c(F)ccc2cc(O)cc(-c3ncc4c(N5CC6CCC(C5)N6C(=O)NC(C)(C)C)nc(OCC5(CN6CCN(CC7CCN(c8ccc9c(c8)CN(C8CCC(=O)NC8=O)C9=O)CC7)CC6)CC5)nc4c3F)c12 (stereo not drawn) [Compound 118] | 100 to 1000 nM | > 1000 nM | 100 to 1000 nM | 100 to 1000 nM | < 100 nM | – | – | –
2 | C#Cc1c(F)ccc2cc(O)cc(-c3ncc4c(N5CCN(C(=O)C(=C)F)[C@@H](CC#N)C5)nc(OCC5(CN6CCN(CC7CCN(c8ccc9c(c8)CN(C8CCC(=O)NC8=O)C9=O)CC7)CC6)CC5)nc4c3F)c12 (stereo partly drawn) [Compound 105] | – | – | > 1000 nM | < 100 nM | – | < 100 nM | > 50% | –
3 | [2H]C([2H])([2H])Oc1nc(-c2cc(O)cc3ccc(F)c(C#C)c23)c(F)c2nc(OCC3(CN4CCN(CC5CCN(c6ccc(NC7CCC(=O)NC7=O)cc6)CC5)CC4)CC3)nc(N3CC4CCC(C3)N4C(=O)CC#N)c12 (stereo not drawn) [Compound 119] | 100 to 1000 nM | 100 to 1000 nM | 100 to 1000 nM | 100 to 1000 nM | 100 to 1000 nM | – | – | –
4 | C#Cc1c(F)ccc2cc(O)cc(-c3nc(OC)c4c(N5CC6CCC(C5)N6C(=O)CCC#N)nc(OCC5(CN6CCN(CC7CCN(c8ccc9c(c8)CN(C8CCC(=O)NC8=O)C9=O)CC7)CC6)CC5)nc4c3F)c12 (stereo not drawn) [Compound 117] | < 100 nM | < 100 nM | 100 to 1000 nM | < 100 nM | < 100 nM | – | – | –
5 | C#Cc1c(F)ccc2cc(O)cc(-c3nc(OC)c4c(N5CC6CCC(C5)N6C(=O)NCC#N)nc(OCC5(CN6CCN(CC7CCN(c8ccc9c(c8)CN(C8CCC(=O)NC8=O)C9=O)CC7)CC6)CC5)nc4c3F)c12 (stereo not drawn) [Compound 122] | < 100 nM | 100 to 1000 nM | > 1000 nM | < 100 nM | < 100 nM | – | – | –
6 | C#Cc1cccc2cc(O)cc(-c3ncc4c(N5CC6CCC(C5)N6)nc(OCC5(CN6CCN(CC7CCN(CC(=O)N[C@@H](C(=O)N8C[C@@H](O)C[C@@H]8C(=O)NCc8ccc(-c9scnc9C)cc8)C(C)(C)C)CC7)CC6)CC5)nc4c3F)c12 [Compound 52] | – | – | – | – | – | – | – | > 50%
7 | C#Cc1c(F)ccc2cc(O)cc(-c3ncc4c(N5CC6CCC(C5)N6C(=O)/C(C#N)=C/C5CC5)nc(OCC5(CN6CCN(CC7CCN(c8ccc9c(c8)CN(C8CCC(=O)NC8=O)C9=O)CC7)CC6)CC5)nc4c3F)c12 (stereo not drawn) [Compound 124] | 100 to 1000 nM | > 1000 nM | > 1000 nM | < 100 nM | 100 to 1000 nM | – | – | –
8 | [2H]C([2H])([2H])Oc1nc(-c2cc(O)cc3ccc(F)c(C#C)c23)c(F)c2nc(OCC3(CN4CCN(CC5CCN(c6ccc7c(c6)CN(C6CCC(=O)NC6=O)C7=O)CC5)CC4)CC3)nc(N3CC4CCC(C3)N4C(=O)C(C)CC#N)c12 (stereo not drawn) [Compound 116] | 100 to 1000 nM | > 1000 nM | 100 to 1000 nM | 100 to 1000 nM | 100 to 1000 nM | – | – | –
9 | C#Cc1c(F)ccc2cc(O)cc(-c3nc(OC)c4c(N5CC6CCC(C5)N6C(=O)NCC(F)(F)F)nc(OCC5(CN6CCN(CC7CCN(c8ccc9c(c8)CN(C8CCC(=O)NC8=O)C9=O)CC7)CC6)CC5)nc4c3F)c12 (stereo not drawn) [Compound 123] | < 100 nM | < 100 nM | > 1000 nM | < 100 nM | < 100 nM | – | – | –
10 | C#Cc1c(F)ccc2cc(O)cc(-c3nc(OC)c4c(N5CCN(C(=O)C=C)[C@@H](CC#N)C5)nc(OCC5(CN6CCN(CC7CCN(c8ccc9c(c8)CN(C8CCC(=O)NC8=O)C9=O)CC7)CC6)CC5)nc4c3F)c12 (stereo partly drawn) [Compound 125] | – | – | < 100 nM | < 100 nM | – | – | – | –
11 | C#Cc1c(F)ccc2cc(O)cc(-c3ncc4c(N5CC6CCC(C5)N6C(=O)[C@H](C)C#N)nc(OCC5(CN6CCN(CC7CCN(c8ccc9c(c8)CN(C8CCC(=O)NC8=O)C9=O)CC7)CC6)CC5)nc4c3F)c12 (stereo partly drawn) [Compound 110] | > 1000 nM | 100 to 1000 nM | 100 to 1000 nM | < 100 nM | > 1000 nM | – | – | –
12 | C#Cc1c(F)ccc2cc(O)cc(-c3nc(OC)c4c(N5CC6CCC(C5)N6)nc(OCC5(CN6CCN(C7CCN(c8ccc9c(c8)CN(C8CCC(=O)NC8=O)C9=O)CC7)CC6)CC5)nc4c3F)c12 (stereo not drawn) [Compound 82] | – | – | – | – | – | – | – | > 50%
13 | C#Cc1c(F)ccc2cc(O)cc(-c3nc(OC)c4c(N5CCN(C(=O)CC#N)[C@@H](CC#N)C5)nc(OCC5(CN6CCN(CC7CCN(c8ccc9c(c8)CN(C8CCC(=O)NC8=O)C9=O)CC7)CC6)CC5)nc4c3F)c12 (stereo partly drawn) [Compound 104] | > 1000 nM | > 1000 nM | 100 to 1000 nM | 100 to 1000 nM | > 1000 nM | – | – | –
14 | O=CO.[2H]C([2H])([2H])Oc1nc(-c2cc(O)cc3ccc(F)c(C#C)c23)c(F)c2nc(OCC3(CN4CCN(CC5CCN(c6ccc7c(c6)CN(C6CCC(=O)NC6=O)C7=O)CC5)CC4)CC3)nc(N3CC4CCC(C3)N4C(=O)C(C#N)CC(F)(F)F)c12 (stereo not drawn) [Compound 121] | > 1000 nM | > 1000 nM | > 1000 nM | < 100 nM | 100 to 1000 nM | – | – | –
15 | C#Cc1c(F)ccc2cc(O)cc(-c3ncc4c(N5CC6CCC(C5)N6)nc(OCC5(CN6CCC(N7CCC(c8ccc9c(c8)CN(C8CCC(=O)NC8=O)C9=O)CC7)CC6)CC5)nc4c3F)c12 (stereo not drawn) [Compound 77] | – | – | – | – | – | – | – | > 50%
16 | C#Cc1c(F)ccc2cc(O)cc(-c3ncc4c(N5C[C@H]6CC[C@@H](C5)N6)nc(OCC5(CN6CCC(CN7CCC(c8ccc9c(c8)CN(C8CCC(=O)NC8=O)C9=O)C(F)(F)C7)CC6)CC5)nc4c3F)c12 (stereo partly drawn) [Compound 93, 3-(5-(1-((1-((1-(((4-((1R,5S)-3,8-diazabicyclo[3.2.1]octan-3-yl)-7-(8-ethynyl-7-fluoro-3-hydroxynaphthalen-1-yl)-8-fluoropyrido[4,3-d]pyrimidin-2-yl)oxy)methyl)cyclopropyl)methyl)piperidin-4-yl)methyl)-3,3-difluoropiperidin-4-yl)-1-oxoisoindolin-2-yl) piperidine-2,6-dione] | < 100 nM | – | – | – | < 100 nM | – | – | –
17 | C#Cc1c(F)ccc2cc(O)cc(-c3ncc4c(N5CCN(C(=O)C=C)[C@@H](CC#N)C5)nc(OCC5(CN6CCN(CC7CCN(c8ccc9c(c8)CN(C8CCC(=O)NC8=O)C9=O)CC7)CC6)CC5)nc4c3F)c12 (stereo partly drawn) [Compound 79] | – | > 1000 nM | > 1000 nM | < 100 nM | – | < 100 nM | > 50% | –
